Values after ≈ are worked out from the molar mass of the structure shown.
What was measured:
[1] = test system: Staphylococcus aureus; experiment: Antibacterial activity against Staphylococcus aureus; format: functional
[2] = target: T1, DNA gyrase (Escherichia coli, UniProt P0AES4+P0AES6); experiment: Inhibition of Escherichia coli DNA gyrase; format: protein-complex assay
[3] = test system: Escherichia coli; experiment: Antibacterial activity against Escherichia coli; format: functional
[4] = Inhibition of Escherichia coli DNA topoisomerase 4
[5] = target: T1, DNA gyrase; experiment: Inhibition of Escherichia coli DNA gyrase assessed as reduction in enzyme-mediated supercoiling of relaxed plasmid by fluorescence polarization assay; format: protein-complex assay
[6] = test system: Escherichia coli; experiment: Antibacterial activity against Escherichia coli ATCC 25922 by CLSI method; format: functional
[7] = Inhibition of Escherichia coli topoisomerase 4 after 24 hrs by ATPase assay
[8] = Selectivity ratio, ratio of IC50 for human HEK293 cells to MIC for Escherichia coli ATCC 25922; format: toxicity; settings: read-out: Selectivity Index
[9] = test system: Haemophilus influenzae; experiment: Antibacterial activity against quinolone-sensitive Haemophilus influenzae ATCC 49766 after 16 to 24 hrs by broth microdilution method; format: functional
[10] = test system: Neisseria gonorrhoeae; experiment: Antibacterial activity against Neisseria gonorrhoeae ATCC 19424 after 16 to 24 hrs by broth microdilution method; format: functional
[11] = test system: Staphylococcus aureus; experiment: Antibacterial activity against Staphylococcus aureus ATCC 29213 in presence of 50% human serum after 16 to 24 hrs by broth microdilution method; format: functional
[12] = test system: HepG2; experiment: Cytotoxicity against human HepG2 cells after 48 hrs by Alamar blue staining-based fluorometric analysis; format: cell-based; settings: HepG2, 48 h
[13] = test system: Enterococcus faecalis; experiment: Antibacterial activity against Enterococcus faecalis ATCC 29212 after 16 to 24 hrs by broth microdilution method; format: functional
[14] = test system: Haemophilus influenzae; experiment: Antibacterial activity against quinolone-sensitive Haemophilus influenzae H128 after 16 to 24 hrs by broth microdilution method; format: functional
[15] = test system: HT-29; experiment: Cytotoxicity against human HT-29 cells after 24 hrs by resazurin dye based CellTiter-Blue assay; format: cell-based; settings: HT-29, 24 h
[16] = test system: HEK293; experiment: Cytotoxicity against human HEK293 cells after 48 hrs by Alamar blue staining-based fluorometric analysis; format: cell-based; settings: HEK293, 48 h
[17] = test system: Staphylococcus aureus; experiment: Selectivity ratio of MIC for Staphylococcus aureus BAA-1720 in presence of 50% human serum to MIC for Staphylococcus aureus BAA-1720; format: functional
[18] = target: T2, DNA topoisomerase 4 subunit A (Escherichia coli K-12, UniProt P0AFI2); experiment: Inhibition of Escherichia coli ATCC 25922 DNA topoisomerase 4 subunit ParC assessed as reduction in decatenation of kinetoplast DNA incubated for 30 mins by ethidium bromide staining based gel electrophoresis method
T2 sequence (P0AFI2 whole entry): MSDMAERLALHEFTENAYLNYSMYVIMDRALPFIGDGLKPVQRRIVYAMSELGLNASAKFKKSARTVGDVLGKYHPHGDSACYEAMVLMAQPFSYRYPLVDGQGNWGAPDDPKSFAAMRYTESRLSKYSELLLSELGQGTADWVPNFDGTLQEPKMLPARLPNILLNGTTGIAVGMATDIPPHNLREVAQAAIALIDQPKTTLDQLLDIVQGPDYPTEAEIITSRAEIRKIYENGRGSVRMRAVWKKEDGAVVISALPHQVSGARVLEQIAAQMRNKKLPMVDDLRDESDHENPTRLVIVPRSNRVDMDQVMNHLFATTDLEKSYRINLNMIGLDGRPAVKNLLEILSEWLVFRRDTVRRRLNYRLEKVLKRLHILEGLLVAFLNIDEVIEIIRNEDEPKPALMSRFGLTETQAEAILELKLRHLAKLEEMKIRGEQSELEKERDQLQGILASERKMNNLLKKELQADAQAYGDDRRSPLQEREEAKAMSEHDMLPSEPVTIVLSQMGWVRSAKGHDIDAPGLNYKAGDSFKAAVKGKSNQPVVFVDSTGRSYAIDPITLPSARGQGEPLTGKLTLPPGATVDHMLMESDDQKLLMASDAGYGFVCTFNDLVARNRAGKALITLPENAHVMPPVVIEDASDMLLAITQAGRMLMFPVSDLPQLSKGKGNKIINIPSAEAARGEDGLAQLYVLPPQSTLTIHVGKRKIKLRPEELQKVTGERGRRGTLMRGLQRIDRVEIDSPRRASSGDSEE

[19] = test system: Klebsiella pneumoniae; experiment: Antibacterial activity against quinolone-sensitive Klebsiella pneumoniae ATCC 700603 after 16 to 24 hrs by broth microdilution method; format: functional
[20] = target: DNA gyrase subunit A (Escherichia coli K-12, UniProt P0AES4); experiment: Inhibition of Escherichia coli ATCC 25922 DNA gyrase A assessed as reduction in enzyme-mediated supercoiling of relaxed pBR322 DNA by ethidium bromide staining based gel electrophoresis method
[21] = target: DNA gyrase subunit A (Staphylococcus aureus, UniProt P20831); experiment: Inhibition of Staphylococcus aureus ATCC 29213 DNA gyrase A assessed as reduction in enzyme-mediated supercoiling of relaxed pBR322 DNA by ethidium bromide staining based gel electrophoresis method
[22] = test system: Enterococcus faecium; experiment: Antibacterial activity against vancomycin resistant and teicoplanin sensitive Enterococcus faecium APV 00420 after 16 to 24 hrs by broth microdilution method; format: functional
[23] = target: DNA topoisomerase 4 subunit A (Staphylococcus aureus, UniProt P0C1U9); experiment: Inhibition of Staphylococcus aureus ATCC 29213 DNA topoisomerase 4 subunit ParC assessed as reduction in decatenation of kinetoplast DNA incubated for 30 mins by ethidium bromide staining based gel electrophoresis method
[24] = test system: Staphylococcus aureus; experiment: Antibacterial activity against Staphylococcus aureus ATCC 29213 after 16 to 24 hrs by broth microdilution method; format: functional
[25] = Selectivity ratio, ratio of IC50 for human HepG2 cells to MIC for Escherichia coli ATCC 25922; format: toxicity; settings: read-out: Selectivity Index
[26] = test system: Escherichia coli; experiment: Antibacterial activity against Escherichia coli ATCC 25922 after 16 to 24 hrs by broth microdilution method; format: functional
[27] = test system: Staphylococcus aureus; experiment: Antibacterial activity against Staphylococcus aureus BAA-1720 in presence of 50% human serum after 16 to 24 hrs by broth microdilution method; format: functional
[28] = test system: Staphylococcus aureus; experiment: Antibacterial activity against Staphylococcus aureus BAA-1720 after 16 to 24 hrs by broth microdilution method; format: functional
[29] = test system: Escherichia coli; experiment: Selectivity ratio of MIC for Escherichia coli ATCC 25922 in presence of 50% human serum to MIC for Escherichia coli ATCC 25922; format: functional
[30] = Selectivity ratio, ratio of IC50 for human HEK293 cells to MIC for Staphylococcus aureus ATCC 29213; format: toxicity; settings: read-out: Selectivity Index
[31] = Selectivity ratio, ratio of IC50 for human HepG2 cells to MIC for Staphylococcus aureus ATCC 29213; format: toxicity; settings: read-out: Selectivity Index
[32] = test system: Pseudomonas aeruginosa; experiment: Antibacterial activity against Pseudomonas aeruginosa ATCC 27853 after 16 to 24 hrs by CLSI method; format: functional
[33] = test system: Staphylococcus aureus; experiment: Selectivity ratio of MIC for Staphylococcus aureus ATCC 29213 in presence of 50% human serum to MIC for Staphylococcus aureus ATCC 29213; format: functional
[34] = test system: Escherichia coli; experiment: Antibacterial activity against Escherichia coli ATCC 25922 in presence of 50% human serum after 16 to 24 hrs by broth microdilution method; format: functional
[35] = Cytotoxicity against human HCE2 cells incubated for 2 hrs by MTT assay; format: cell-based
[36] = test system: Enterococcus faecalis; experiment: Antibacterial activity against vancomycin-sensitive Enterococcus faecalis APV 00404 after 16 to 24 hrs by broth microdilution method; format: functional
[37] = test system: HaCaT; experiment: Cytotoxicity against human HaCaT cells after 24 hrs by resazurin dye based CellTiter-Blue assay; format: cell-based
[38] = test system: Enterococcus faecalis; experiment: Antibacterial activity against vancomycin-sensitive Enterococcus faecalis APV 00623 after 16 to 24 hrs by broth microdilution method; format: functional
[39] = test system: Enterococcus faecalis; experiment: Antibacterial activity against vancomycin-sensitive Enterococcus faecalis APV 00406 after 16 to 24 hrs by broth microdilution method; format: functional
[40] = test system: Enterococcus faecium; experiment: Antibacterial activity against Enterococcus faecium APV 00626 after 16 to 24 hrs by broth microdilution method; format: functional
[41] = test system: Enterococcus faecium; experiment: Antibacterial activity against vancomycin and teicoplanin-resistant Enterococcus faecium APV 00424 after 16 to 24 hrs by broth microdilution method; format: functional
[42] = test system: Enterococcus faecium; experiment: Antibacterial activity against vancomycin and teicoplanin-resistant Enterococcus faecium APV 00422 after 16 to 24 hrs by broth microdilution method; format: functional
[43] = test system: Enterococcus faecalis; experiment: Antibacterial activity against vancomycin and teicoplanin-resistant Enterococcus faecalis APV 00408 after 16 to 24 hrs by broth microdilution method; format: functional
[44] = test system: Enterococcus faecalis; experiment: Antibacterial activity against vancomycin and teicoplanin-resistant Enterococcus faecalis APV 00409 after 16 to 24 hrs by broth microdilution method; format: functional
[45] = target: hERG (KCNH2) (Homo sapiens, UniProt Q12809); experiment: Inhibition of human ERG expressed in CHO cells at 10 uM after 5 mins by automated whole-cell patch clamp relative to control; format: cell-based; settings: CHO cells that express human ERG
[46] = test system: Enterococcus faecium; experiment: Antibacterial activity against vancomycin resistant and teicoplanin sensitive Enterococcus faecium APV 00553 after 16 to 24 hrs by broth microdilution method; format: functional
[47] = test system: Enterococcus faecium; experiment: Antibacterial activity against Enterococcus faecium APV 00627 after 16 to 24 hrs by broth microdilution method; format: functional

DNA gyrase subunit A (Escherichia coli K-12, UniProt P0AES4), sequence (P0AES4 whole entry): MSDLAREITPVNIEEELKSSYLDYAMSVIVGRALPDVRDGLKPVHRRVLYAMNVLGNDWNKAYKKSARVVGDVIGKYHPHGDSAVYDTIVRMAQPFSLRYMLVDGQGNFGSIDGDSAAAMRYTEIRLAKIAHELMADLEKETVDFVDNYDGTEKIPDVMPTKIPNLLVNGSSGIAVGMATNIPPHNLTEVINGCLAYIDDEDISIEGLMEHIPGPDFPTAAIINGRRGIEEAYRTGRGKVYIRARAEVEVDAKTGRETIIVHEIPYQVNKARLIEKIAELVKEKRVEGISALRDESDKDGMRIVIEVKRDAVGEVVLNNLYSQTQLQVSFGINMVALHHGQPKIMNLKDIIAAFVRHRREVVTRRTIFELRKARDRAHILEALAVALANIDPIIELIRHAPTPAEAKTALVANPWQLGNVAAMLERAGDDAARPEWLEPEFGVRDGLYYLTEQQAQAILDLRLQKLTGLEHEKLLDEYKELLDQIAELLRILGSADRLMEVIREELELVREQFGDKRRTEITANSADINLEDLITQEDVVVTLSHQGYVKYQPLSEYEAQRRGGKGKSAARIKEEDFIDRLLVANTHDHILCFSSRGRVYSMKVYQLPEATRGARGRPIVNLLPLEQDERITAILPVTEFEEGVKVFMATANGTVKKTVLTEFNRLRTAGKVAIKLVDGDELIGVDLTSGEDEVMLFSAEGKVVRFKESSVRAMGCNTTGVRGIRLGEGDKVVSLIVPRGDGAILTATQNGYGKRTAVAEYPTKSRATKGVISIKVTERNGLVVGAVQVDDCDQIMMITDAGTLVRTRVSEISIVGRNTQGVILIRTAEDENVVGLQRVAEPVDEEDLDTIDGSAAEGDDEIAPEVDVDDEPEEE
DNA gyrase subunit A (Staphylococcus aureus, UniProt P20831), sequence (P20831 whole entry): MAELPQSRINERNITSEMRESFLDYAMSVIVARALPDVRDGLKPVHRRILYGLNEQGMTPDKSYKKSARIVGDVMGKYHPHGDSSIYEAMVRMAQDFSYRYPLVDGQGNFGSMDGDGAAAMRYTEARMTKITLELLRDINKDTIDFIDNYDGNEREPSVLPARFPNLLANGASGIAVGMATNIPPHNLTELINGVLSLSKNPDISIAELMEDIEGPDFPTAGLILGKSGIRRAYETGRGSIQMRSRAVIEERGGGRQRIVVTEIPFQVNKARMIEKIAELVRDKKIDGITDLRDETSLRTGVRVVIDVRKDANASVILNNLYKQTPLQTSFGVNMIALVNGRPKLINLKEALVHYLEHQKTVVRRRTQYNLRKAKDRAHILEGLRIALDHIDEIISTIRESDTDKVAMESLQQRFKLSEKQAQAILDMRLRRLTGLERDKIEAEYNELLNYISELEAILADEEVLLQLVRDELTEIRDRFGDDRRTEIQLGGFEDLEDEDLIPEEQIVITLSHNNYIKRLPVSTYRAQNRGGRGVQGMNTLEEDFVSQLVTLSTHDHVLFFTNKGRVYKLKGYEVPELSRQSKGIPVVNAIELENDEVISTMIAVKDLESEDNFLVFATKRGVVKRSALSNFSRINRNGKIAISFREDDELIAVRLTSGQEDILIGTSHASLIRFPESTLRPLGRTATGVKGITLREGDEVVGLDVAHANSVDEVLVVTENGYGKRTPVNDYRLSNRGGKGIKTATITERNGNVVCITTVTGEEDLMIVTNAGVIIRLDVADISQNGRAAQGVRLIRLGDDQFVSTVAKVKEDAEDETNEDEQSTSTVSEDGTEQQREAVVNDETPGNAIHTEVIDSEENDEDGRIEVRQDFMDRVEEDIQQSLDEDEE
DNA topoisomerase 4 subunit A (Staphylococcus aureus, UniProt P0C1U9), sequence (P0C1U9 whole entry): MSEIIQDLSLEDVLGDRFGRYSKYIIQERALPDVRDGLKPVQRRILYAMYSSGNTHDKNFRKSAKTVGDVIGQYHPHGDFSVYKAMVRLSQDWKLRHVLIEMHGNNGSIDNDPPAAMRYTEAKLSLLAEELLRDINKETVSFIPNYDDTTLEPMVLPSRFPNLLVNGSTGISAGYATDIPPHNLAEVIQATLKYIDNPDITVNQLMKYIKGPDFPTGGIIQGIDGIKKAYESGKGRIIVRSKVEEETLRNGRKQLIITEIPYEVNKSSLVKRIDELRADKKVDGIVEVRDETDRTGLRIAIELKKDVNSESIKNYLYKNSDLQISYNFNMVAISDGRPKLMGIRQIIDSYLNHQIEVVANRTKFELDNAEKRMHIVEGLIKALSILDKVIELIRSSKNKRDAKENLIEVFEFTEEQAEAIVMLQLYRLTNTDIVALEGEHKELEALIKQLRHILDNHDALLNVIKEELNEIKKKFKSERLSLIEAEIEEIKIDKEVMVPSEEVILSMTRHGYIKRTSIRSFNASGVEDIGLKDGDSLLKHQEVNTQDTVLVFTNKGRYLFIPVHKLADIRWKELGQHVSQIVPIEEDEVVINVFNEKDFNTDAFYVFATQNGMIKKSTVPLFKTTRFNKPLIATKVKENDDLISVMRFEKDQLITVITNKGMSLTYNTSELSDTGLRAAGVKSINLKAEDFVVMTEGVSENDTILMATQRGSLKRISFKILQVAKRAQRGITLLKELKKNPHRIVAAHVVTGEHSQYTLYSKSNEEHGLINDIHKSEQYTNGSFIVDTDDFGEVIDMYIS
hERG (KCNH2), sequence (Q12809 whole entry): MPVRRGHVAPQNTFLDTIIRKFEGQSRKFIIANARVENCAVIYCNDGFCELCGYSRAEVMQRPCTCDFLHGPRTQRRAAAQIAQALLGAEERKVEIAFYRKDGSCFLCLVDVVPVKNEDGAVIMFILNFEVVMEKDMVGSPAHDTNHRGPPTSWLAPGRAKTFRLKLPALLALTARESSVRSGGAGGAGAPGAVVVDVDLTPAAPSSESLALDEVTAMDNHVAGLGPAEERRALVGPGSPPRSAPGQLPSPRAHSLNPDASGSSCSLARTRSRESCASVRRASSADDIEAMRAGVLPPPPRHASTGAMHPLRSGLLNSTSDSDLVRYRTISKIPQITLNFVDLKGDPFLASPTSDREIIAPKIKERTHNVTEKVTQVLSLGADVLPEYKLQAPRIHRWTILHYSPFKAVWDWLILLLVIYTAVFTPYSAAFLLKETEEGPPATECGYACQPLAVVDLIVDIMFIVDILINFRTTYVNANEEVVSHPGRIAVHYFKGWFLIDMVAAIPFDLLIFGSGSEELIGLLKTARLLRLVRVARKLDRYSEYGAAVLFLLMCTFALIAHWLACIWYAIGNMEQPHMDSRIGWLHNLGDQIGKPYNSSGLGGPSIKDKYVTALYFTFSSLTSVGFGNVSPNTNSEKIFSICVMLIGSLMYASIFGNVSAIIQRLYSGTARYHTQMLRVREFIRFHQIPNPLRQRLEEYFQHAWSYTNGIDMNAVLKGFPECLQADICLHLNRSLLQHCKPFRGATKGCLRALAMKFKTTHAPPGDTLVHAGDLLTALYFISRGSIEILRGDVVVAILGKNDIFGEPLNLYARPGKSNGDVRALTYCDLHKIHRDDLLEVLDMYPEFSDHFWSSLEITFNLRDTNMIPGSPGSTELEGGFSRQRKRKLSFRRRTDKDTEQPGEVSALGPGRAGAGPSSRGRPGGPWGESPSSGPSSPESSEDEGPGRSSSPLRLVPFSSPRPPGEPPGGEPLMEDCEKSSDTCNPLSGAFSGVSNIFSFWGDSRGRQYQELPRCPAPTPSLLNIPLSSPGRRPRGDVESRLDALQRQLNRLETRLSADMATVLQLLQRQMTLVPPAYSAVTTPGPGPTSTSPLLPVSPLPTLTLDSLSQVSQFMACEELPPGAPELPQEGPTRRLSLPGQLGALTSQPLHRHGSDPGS

| Structure (SMILES) | MIC [1] [µg/mL] | selectivity ratio [8] | MIC [9] [µg/mL] | MIC [10] [µg/mL] | MIC [11] [µg/mL] | IC50 [12] [nM] | MIC [13] [µg/mL] | MIC [14] [µg/mL] | IC50 [16] [nM] | Ratio [17] | IC50 [18] [nM] | MIC [19] [µg/mL] | IC50 [20] [nM] | IC50 [21] [nM] | MIC [22] [µg/mL] | IC50 [23] [nM] | MIC [24] [µM] | selectivity ratio [25] | MIC [26] [µM] | MIC [27] [µg/mL] | further results |
| --- | --- | --- | --- | --- | --- | --- | --- | --- | --- | --- | --- | --- | --- | --- | --- | --- | --- | --- | --- | --- | --- |
| COc1ccc2c3conc3c(=O)n(CCN3CCC(NCc4ccc5c(n4)NC(=O)CO5)CC3)c2c1 | 0.12 (≈ 0.238 µM) | – | – | – | – | – | – | – | – | – | – | – | – | – | – | – | – | – | – | – | IC50 [2]: 1660 nM; MIC [3]: 0.12 µg/mL (≈ 0.238 µM); IC50 [4]: 140 nM |
| N[C@@H](Cn1c(=O)cnc2ccc(F)cc21)C1CCC(NCc2ncc3c(n2)OCC(=O)N3)CC1 (some centres undefined) | 1 (≈ 2.14 µM) | – | – | – | – | – | – | – | – | – | – | – | – | – | – | – | – | – | – | – | IC50 [5]: 20 nM; MIC90 [6]: 2 µg/mL (≈ 4.28 µM); IC50 [7]: 3 nM |
| COc1ccc2cc(F)nc(N3CCN(CC(O)CNc4cc(=O)oc5ccc(F)cc45)CC3)c2c1 (racemic) | – | 66 | 0.5 (≈ 1.01 µM) | ≤ 0.06 | 8 | 25000 | 0.25 (≈ 0.504 µM) | 0.5 (≈ 1.01 µM) | 66000 | >=32 - 267 | 100 | 4 (≈ 8.06 µM) | 40 | < 100 | 0.12 (≈ 0.242 µM) | < 100 | < 0.12 | 25 | 1 (≈ 0.497 µg/mL) | 4 | IC50 [15]: > 100000 nM; MIC [28]: 0.03 µg/mL (≈ 0.0604 µM); Ratio [29]: >=32 - 267; selectivity ratio [30]: > 5500; selectivity ratio [31]: > 208; MIC [32]: 4 µg/mL (≈ 8.06 µM); Ratio [33]: >=32 - 267; MIC [34]: > 8 µg/mL; IC50 [35]: > 150000 nM |
| O=c1nc(NCC(O)CN2CCN(c3nc(F)cc4ccc(F)cc34)CC2)c2cc(F)ccc2o1 (racemic) | – | 51 | 0.12 (≈ 0.247 µM) | ≤ 0.06 | 4 | 31000 | 0.12 (≈ 0.247 µM) | 0.06 (≈ 0.124 µM) | 52000 | >=32 - 267 | 100 | 1 (≈ 2.06 µM) | 100 | 20 | 0.25 (≈ 0.515 µM) | 40 | < 0.12 | 30 | 1.02 (≈ 0.495 µg/mL) | 4 | MIC [36]: 0.12 µg/mL (≈ 0.247 µM); IC50 [37]: > 100000 nM; MIC [38]: 0.12 µg/mL (≈ 0.247 µM); MIC [39]: 0.06 µg/mL (≈ 0.124 µM); MIC [40]: 32 µg/mL (≈ 65.9 µM); MIC [41]: 0.06 µg/mL (≈ 0.124 µM); MIC [42]: 0.12 µg/mL (≈ 0.247 µM); MIC [43]: 0.06 µg/mL (≈ 0.124 µM); MIC [44]: 0.06 µg/mL (≈ 0.124 µM); inhibition at 5 min, 10 µM [45]: 24%; MIC [28]: 0.03 µg/mL (≈ 0.0618 µM); Ratio [29]: >=32 - 267; selectivity ratio [30]: > 433; selectivity ratio [31]: > 258; MIC [46]: 0.25 µg/mL (≈ 0.515 µM); MIC [32]: 2 µg/mL (≈ 4.12 µM); Ratio [33]: >=32 - 267; MIC [34]: > 8 µg/mL; MIC [47]: 0.5 µg/mL (≈ 1.03 µM) |

From ChEMBL document CHEMBL4373693, “Virtual Screening Approach and Investigation of Structure-Activity Relationships To Discover Novel Bacterial Topoisomerase Inhibitors Targeting Gram-Positive and Gram-Negative Pathogens” (J Med Chem, 2019)
